# From patent US20220062391A1, “ENHANCING EPITHELIAL OR ENDOTHELIAL BARRIER FUNCTION” (UNIVERSITY OF ROCHESTER, priority 2019, published 2022)
# Assays:
# ATI cells [1] = assay: TEER of alveolar epithelial monolayers on transwell plates; assay type: cell-based, rat
# Description: Primary rat alveolar epithelial type II cells were isolated using an IgG-panning approach as described by Dobbs (74). Briefly, lungs from Sprague Dawley rats (200-250 g) were surgically removed and perfused, lavaged, and treated with 1 mg/ml of elastase (WORTHINGTON BIOCHEMICAL, Lakewood, N.J.) to release the epithelial cells. Next, lung lobes were separated, cut, minced, filtered and spin down at 1500 rpm for 15 minutes. The cells were resuspended with DMEM without FBS and transferred into two IgG plates. After incubation at 37° C. for one hour, non-adhered cells (predominately ATII cells) were transferred to a new tube and centrifuged at 1500 rpm for 15 minutes. The cells were resuspended in DMEM containing 10% FBS and plated on fibronectin coated plates. To coat the plates with fibronectin, 20 μg/ml of fibronectin from bovine plasma (F1141, SIGMA-ALDRICH, St. Louis, Mo.) was added to 100 mm culture plates (using 3 ml) or the upper chamber of the transwell plates (using 400 μl). Plates were left at 37° C. for 3 hours. Residual solution was removed, and plates were dried in a tissue culture hood for at least 30 minutes before cells were added. 16HBE14o-human bronchial epithelial cells were cultured in Dulbecco's modified Eagle's medium as previously reported (18).
# Prior to the assay, cells cultured on 12-well transwell plates (12 mm transwell with 0.4 μm pore polyester membrane insert; CORNING, Corning, N.Y.) were moved to the tissue culture hood for 15 minutes to allow the medium equilibrate to room temperature. TEER was measured using an epithelial voltmeter (EVOM2; WORLD PRECISION INSTRUMENTS, Sarasota, Fla.). Three readings were recorded and averaged for each well. To calculate TEER, the resistance of the fibronectin-coated insert without cells (blank resistance) was subtracted from the measured resistance, then multiplied by 1.12 cm^2 to account for the surface area of the insert.
# ATI cells [2] = assay: Western blot of tight junction proteins in transfected ATI cells; assay type: cell-based, rat; settings: 24 hours
# Description: (§1) Primary rat alveolar epithelial type II cells were isolated using an IgG-panning approach as described by Dobbs (74). Briefly, lungs from Sprague Dawley rats (200-250 g) were surgically removed and perfused, lavaged, and treated with 1 mg/ml of elastase (WORTHINGTON BIOCHEMICAL, Lakewood, N.J.) to release the epithelial cells. Next, lung lobes were separated, cut, minced, filtered and spin down at 1500 rpm for 15 minutes. The cells were resuspended with DMEM without FBS and transferred into two IgG plates. After incubation at 37° C. for one hour, non-adhered cells (predominately ATII cells) were transferred to a new tube and centrifuged at 1500 rpm for 15 minutes. The cells were resuspended in DMEM containing 10% FBS and plated on fibronectin coated plates. […]
# (§2) Cells were lysed with reporter lysis buffer (lx, PROMEGA), supplemented with protease inhibitor (COMPLETE, Mini, EDTA-free tablets; ROCHE, Basel, Switzerland) and phosphatase inhibitor (PHOSSTOP Phosphatase Inhibitor Cocktail; ROCHE, Basel, Switzerland). […] After incubation with secondary antibody and development, bands were detected on film (BIOMAX MR film; […] HEALTH, Rochester, N.Y.) or using the CHEMIDOC IMAGING SYSTEM (BIO-RAD, Hercules, Calif.) and quantified using the IMAGE STUDIO™ LITE software (LI-COR, Lincoln, Nebr.) or the IMAGE LAB SOFTWARE (BIO-RAD, Hercules, Calif.).
# 16HBE14o-cells = assay: Doxycycline-inducible β1 expression, immunoblot in 16HBE14o- cells; assay type: cell-based, human; settings: 24 hours post transfection
# Description: as §1, with “minutes.” for “minutes. The cells were resuspended in DMEM containing 10% FBS and plated on fibronectin coated plates.”
# as §2
# Given that the β1 subunit increased protein expressions of tight junctions in ATI cells, their localization in these cells was analyzed. […]
# mouse lungs = assay: Alveolar fluid clearance (AFC) in live mice; assay type: in vivo; settings: two days after gene transfer, or 10^−8 mol/L in the instillation solution
# Description: (§3) Male C57BL/6 mice (9-11 weeks) were anesthetized with isoflurane and 100 μg of each individual plasmid were delivered in 50 μl of 10 mM Tris-HCl (pH 8.0), 1 mM EDTA, and 140 mM NaCl, to mouse lungs by aspiration (when both β1 and MRCKα were delivered, 100 μg of each were administered prior to electroporation) as previously described in Lin, X., et al., Gene Ther 23: 489-99. Eight, 10 msec square wave pulses at a field strength of 200 V/cm were immediately applied using cutaneous electrophysiology electrodes (MEDTRONIC, Redmond, Wash.) placed on the mouse chest with an ECM830 electroporator (BTX, HARVARD […], Holliston, Mass.). […]
# The method used in this study was performed in live mice as previously described in Lin, X., et al., Gene Ther 23: 489-99 and Mutlu, G. M., et al., Circ Res 94: 1091-100. […] Protein concentration in the aspirate was assessed using a Bradford assay (BIO-RAD LABORATORIES, Hercules, Calif.) and AFC was calculated using following equation: AFC=1−(C0/C30), where C0, is the protein concentration of the instillate before instillation, and C30 is the protein concentration of the sample obtained at the end of 30 minutes of mechanical ventilation. Clearance is expressed as a percentage of total instilled volume cleared/30 minutes. […]
# ATI cells [3] = assay: Permeability to fluorescent dextran tracers; assay type: cell-based, rat; settings: 1 μg/ml
# Description: Permeability to fluorescent tracers was measured using a modified protocol previous described (76). […] Five hundred microliters of freshly prepared solution containing 100 μg/mL of 40 kD FITC-dextran and 100 μg/mL of 31(D Texas Red-dextran were added to the apical compartment. One thousand microliters of P buffer was added to the bottom chamber. After 2 hours incubation at 37° C., 100 μl of the basal medium was collected and the fluorescence of the transported dextran was measured with a SPECTRAMAX M5 multi-mode microplate reader (MOLECULAR DEVICES, San Jose, Calif.). The excitation wavelength and emission wavelength are 492 nm and 520 nm for FITC and 596 nm and 615 nm for Texas-red, respectively. The quantity of tracer was calculated by comparison with a standard curve. A permeability coefficient was determined using the following equation (77): Pc (cm/min)=V/(A×Co)×(C/T) where V is volume in the lower compartment (1 ml), A is the surface area of the membrane (1.12 cm^2 for the 12-well transwell used here), Co is the dextran concentration in the upper compartment at time 0 (0.1 mg/ml), and C is the dextran concentration in the lower compartment at time T of sampling (2 hours).
# LPS-injured lungs [4] = assay: Western blot of occludin and ZO-1 in mouse lungs; assay type: in vivo; settings: LPS 5 mg/kg
# Description: as §3, with “Mass.). All LPS-challenged mice received 5 mg/kg of LPS (Escherichia coli 055:B5, 15,000,000 endotoxin units/mg protein; SIGMA-ALDRICH, St. Louis, Mo.) in 50 μl of phosphate-buffered saline (PBS) by aspiration, one day before gene transfer (n=5-11 mice/group).” for “Mass.).”
# Western blots were performed as previously described in Lin, X., et al. Am J Respir Crit Care Med 183: 1689-97. […] After incubation with secondary antibody and development, bands were detected using the CHEMIDOC Imaging System (BIO-RAD, Hercules, Calif.) and quantified using the IMAGE STUDIO™ LITE software (LI-COR, Lincoln, Nebr.) or the IMAGE LAB software (BIO-RAD, Hercules, Calif.).
# LPS-injured lungs [5] = assay: Pulmonary permeability by Evan's blue dye leakage; assay type: in vivo, mouse; settings: LPS 5 mg/kg intratracheal, compared with naïve mice
# Description: as §3, with “Mass.). All LPS-challenged mice received 5 mg/kg of LPS (Escherichia coli 055:B5, 15,000,000 endotoxin units/mg protein; SIGMA-ALDRICH, St. Louis, Mo.) in 50 μl of phosphate-buffered saline (PBS) by aspiration, one day before gene transfer (n=5-11 mice/group).” for “Mass.).”
# Pulmonary permeability was measured by Evan's blue dye (EBD) leakage from blood into airways (Baluk, P., et al., Br J Pharmacol 126: 522-8 and Mammoto, A., et al., Nat Commun 4: 1759). […] 24 hrs later, EBD was extracted in formamide (FISHER […]) at 37° C. for 24 hrs and quantified by measuring spectrophotometrically at 620 nm and 740 nm, correcting by using formula E620 (EBD)=E620−(1.426×E740+0.030) (Standiford, T. J., et al., J Immunol 155: 1515-24).
# [6] = target: MRCKα of primary rat alveolar type I (ATI) cells (rat) (UniProt O54874); assay: cell-based or functional assay
# Chain of UniProt O54874 (O54874 whole entry): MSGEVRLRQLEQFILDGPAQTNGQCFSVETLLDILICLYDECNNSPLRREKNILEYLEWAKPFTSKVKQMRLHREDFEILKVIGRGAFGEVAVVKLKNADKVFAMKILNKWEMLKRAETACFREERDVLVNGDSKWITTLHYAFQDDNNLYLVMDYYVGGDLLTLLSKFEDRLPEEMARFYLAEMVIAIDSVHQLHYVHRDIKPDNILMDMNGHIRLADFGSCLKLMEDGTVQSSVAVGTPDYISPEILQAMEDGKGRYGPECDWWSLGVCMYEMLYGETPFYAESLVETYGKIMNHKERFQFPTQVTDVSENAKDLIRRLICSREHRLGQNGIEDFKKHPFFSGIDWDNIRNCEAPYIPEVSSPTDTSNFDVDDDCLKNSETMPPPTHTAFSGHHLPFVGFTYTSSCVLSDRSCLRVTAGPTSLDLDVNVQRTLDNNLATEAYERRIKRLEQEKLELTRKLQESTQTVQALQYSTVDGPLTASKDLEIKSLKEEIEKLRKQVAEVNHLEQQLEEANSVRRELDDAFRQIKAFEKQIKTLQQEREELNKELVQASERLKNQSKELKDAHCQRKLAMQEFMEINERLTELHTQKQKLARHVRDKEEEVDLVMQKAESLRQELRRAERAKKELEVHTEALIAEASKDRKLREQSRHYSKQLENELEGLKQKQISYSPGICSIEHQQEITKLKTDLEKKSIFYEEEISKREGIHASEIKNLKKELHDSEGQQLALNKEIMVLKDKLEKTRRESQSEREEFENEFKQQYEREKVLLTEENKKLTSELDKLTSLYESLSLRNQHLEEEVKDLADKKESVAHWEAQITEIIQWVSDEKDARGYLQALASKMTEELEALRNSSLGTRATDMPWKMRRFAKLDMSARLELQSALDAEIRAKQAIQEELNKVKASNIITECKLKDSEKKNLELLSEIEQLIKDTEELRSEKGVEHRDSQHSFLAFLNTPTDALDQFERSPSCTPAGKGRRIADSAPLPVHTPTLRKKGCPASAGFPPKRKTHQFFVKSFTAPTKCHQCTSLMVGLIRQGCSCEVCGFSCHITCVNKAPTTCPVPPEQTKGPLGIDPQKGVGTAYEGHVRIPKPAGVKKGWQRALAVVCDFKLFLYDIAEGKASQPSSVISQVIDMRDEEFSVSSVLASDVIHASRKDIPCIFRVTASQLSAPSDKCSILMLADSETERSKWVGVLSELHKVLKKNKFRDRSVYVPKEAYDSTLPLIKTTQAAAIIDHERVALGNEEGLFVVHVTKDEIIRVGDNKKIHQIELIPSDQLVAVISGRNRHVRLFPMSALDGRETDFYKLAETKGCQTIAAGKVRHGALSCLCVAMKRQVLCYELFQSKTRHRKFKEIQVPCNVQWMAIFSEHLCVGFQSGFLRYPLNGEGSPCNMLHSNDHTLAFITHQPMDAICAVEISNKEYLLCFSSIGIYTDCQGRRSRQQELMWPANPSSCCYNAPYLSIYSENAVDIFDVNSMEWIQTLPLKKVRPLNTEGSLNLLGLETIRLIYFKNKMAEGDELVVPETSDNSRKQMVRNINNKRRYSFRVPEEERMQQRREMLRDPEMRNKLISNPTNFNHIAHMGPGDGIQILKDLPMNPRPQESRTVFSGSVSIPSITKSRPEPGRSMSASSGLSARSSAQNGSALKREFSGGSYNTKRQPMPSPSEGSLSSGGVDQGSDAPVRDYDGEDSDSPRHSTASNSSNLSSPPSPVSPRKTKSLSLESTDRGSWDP
compound,measurement,setting,value
O=C(Nc1cn[nH]c1-c1ccccn1)c1nn(C2CCNCC2)cc1Cl [BDP5290],baseline TEER,ATI cells [1]; 2 μM inhibitor,decreased
same,β1 subunit-induced increase of barrier integrity (TEER) under MRCKα inhibition,ATI cells [1]; 2 μM inhibitor,prevented β1 subunit-induced increase of barrier integrity
Cc1ccc2c(c1)C(=O)C1(O)CCN(c3ccccc3)C1=N2 (stereo not drawn) [blebbistatin],β1-induced upregulation of occludin in presence of blebbistatin,"ATI cells [2]; ATI cells transfected with rat β1, blebbistatin 1, 10 or 100 uM",significantly suppress the upregulation of occludin
same,β1-induced increase in TEER under myosin II inhibition,ATI cells [1]; pretreatment 20 μM,prevented the increase in TEER
C[C@H]1c2cccc(O)c2C(=O)C2=C(O)[C@]3(O)C(=O)C(C(N)=O)=C(O)[C@@H](N(C)C)[C@@H]3[C@@H](O)[C@@H]21 [doxycycline],doxycycline concentration of maximum induction of β1 subunit,16HBE14o-cells,1000 ng/mL
C[C@@H]1O[C@@H](O[C@H]2C[C@@H](O)[C@]3(CO)[C@H]4[C@H](O)C[C@]5(C)[C@@H](C6=CC(=O)OC6)CC[C@]5(O)[C@@H]4CC[C@]3(O)C2)[C@H](O)[C@H](O)[C@H]1O [ouabain],β1-induced upregulation of occludin in presence of ouabain,"ATI cells [2]; ATI cells transfected with rat β1, ouabain 10 nM, 100 nM or 1000 nM",did not block the upregulation of occludin
"CCC(NC(C)C)C(O)c1ccc(O)c2[nH]c(=O)ccc12 (stereo not drawn) [procaterol, Procaterol]",increase of AFC,mouse lungs,145%
lipopolysaccharide,TEER after lipopolysaccharide,"ATI cells [1]; 1 μg/ml, 24 hours",decreased TEER
same,permeability to 4 kD Dextran after lipopolysaccharide,ATI cells [3],increased permeability
same,levels of ZO-1 and occludin in lungs after LPS injury,LPS-injured lungs [4],reduced levels
same,increase of pulmonary leakage in response to LPS,LPS-injured lungs [5],three- to four-fold
"rat Na+, K+-ATPase β1 subunit (from UniProt P07340 1-304)","phosphorylation of myosin light chain 2 (MLC2) at Ser19, western blot after β1 subunit overexpression in ATI cells",[6],2 fold
